Patent US20240398805A1, “QUINAZOLINE DERIVED COMPOUNDS AS EGFR INHIBITORS AND THEIR USES THEREOF” (ACCUTAR BIOTECHNOLOGY INC., priority 2021, published 2024)

Key:
Type in all cases: cell-based
[1] = test system: A431 cells; assay: Cell growth inhibition (CellTiter-Glo, 3 days) in A431; settings: Homo sapiens, A-431, 72 h, 3 days after administration
Procedure: (§1) 2. Cell Growth Inhibition for HCC827, HCC827-SVD, HCC827-ASV, HCC827-YVMA and A431.
(§2) HCC827(ATCC), HCC827-SVD, HCC827-ASV, HCC827-YVMA were seeded in 96-well plates at 5000 cells/well in 90 μl of RPMI growth medium containing 10% FBS and 1% Penicillin Streptomycin. A431 (ATCC) cells were seed in 96-well plates at 5000 cells/well in 90 μl of DMEM growth medium containing 10% FBS and 1% Penicillin Streptomycin. Cells were incubated at 3700 overnight. The following day, the test compound was administered to the cells by using 1 Ox compound stock solution prepared in growth medium at various concentrations. After administration of the compound, cells were then incubated at 3700 for 3 days. Before CeIlTiter-Glo assay, the plates were equilibrated at room temperature for approximately 10 minutes. 100 ul of CelTiter-Glo® Reagent (Promega) was added to each well. The plates were then incubated at room temperature for 10 minutes and luminescence was recorded by EnSpire plate reader (PerkinElmer).

[2] = test system: HCC827 cells; assay: Cell growth inhibition (CellTiter-Glo, 3 days) in HCC827; settings: Homo sapiens, 72 h, 3 days after administration
Procedure: as §1, §2

[3] = test system: HCC827-SVD cells (human EGFR exon 20 insertion mutant D770_N771 insSVD); assay: Cell growth inhibition (CellTiter-Glo, 3 days) in HCC827-SVD; settings: 72 h, 3 days after administration
Procedure: (§3) 1. Preparation of HCC827-SVD, HCC827-ASV and HCC827-YVMA Cell Lines
HCC827-SVD cell line were generated by first transducing HCC827 cells (ATCC) with lentiviral particles expressing codon-optimized human EGFR exon 20 insertion mutant D770_N771 insSVD, and then selecting under 5 μg/ml purimycin treatment for a week.
The resulting cells were further transduced with lentiviral particles carrying EGFR sgRNA and CAS9 to knockout the endogenous alleles of EGFR, and then selected under 500 μg/ml hygromycin B treatment for two weeks. Single clone was subsequently generated by limiting dilution approach. Endogenous EGFR knockout was confirmed by Sanger sequencing of cell genomic DNA and expression of exogenous mutant EGFR was verified by Western blot analysis.
as §1, §2

[4] = test system: HCC827-ASV cells (human EGFR exon 20 insertion mutant A769_D770insASV); assay: Cell growth inhibition (CellTiter-Glo, 3 days) in HCC827-ASV; settings: 72 h, 3 days after administration
Description: as §3
(§4) HCC827-ASV and HCC827-YVMA cell lines were generated in the similar approach as HCC827-SVD except that HCC827 cells (ATCC) were first transduced with lentiviral particles expressing codon-optimized human EGFR exon 20 insertion mutant A769_D770insASV and human ERBB2 exon20 insertion mutant A775_G776ins YVMA, respectively.
as §1, §2

[5] = test system: HCC827-YVMA cells (human ERBB2 exon20 insertion mutant A775_G776ins YVMA); assay: Cell growth inhibition (CellTiter-Glo, 3 days) in HCC827-YVMA; settings: 72 h, 3 days after administration
Description: as §3, §4, §1, §2

GI50 [1] [nM]	GI50 [2] [nM]	GI50 [3] [nM]	GI50 [4] [nM]	GI50 [5] [nM]	SMILES
≥ 1000	≥ 1000	≥ 1000	≥ 1000	≥ 1000	C=CC(=O)N1CC[C@@H](Oc2cc3c(Nc4ccc(Oc5ccn(-c6cnc(OC)nc6)n5)cc4F)ncnc3cc2OC)C1 [Compound 80, (R)-1-(3-((4-((2-fluoro-4-((1-(2-methoxypyrimidin-5-yl)-1H-pyrazol-3-yl)oxy)phenyl)amino)-7-methoxyquinazolin-6-yl)oxy)pyrrolidin-1-yl) prop-2-en-1-one]
≥ 1000	≥ 1000	≥ 1000	≥ 1000	≥ 1000	C=CC(=O)N1CC2(CC(Nc3cc4c(Nc5ccc(Oc6ccn(-c7cnc(OC)nc7)n6)cc5F)ncnc4cc3OC)C2)C1 [Compound 84, 1-(6-((4-((2-fluoro-4-((1-(2-methoxypyrimidin-5-yl)-1H-pyrazol-3-yl)oxy)phenyl)amino)-7-methoxyquinazolin-6-yl)amino)-2-azaspiro[3.3]heptan-2-yl)prop-2-en-1-one]
100 to 300	100 to 300	30 to 60	60 to 100	30 to 60	[2H]C([2H])([2H])Oc1cc2ncnc(Nc3ccc(Oc4nc(-c5ccc(C)nc5)cs4)cc3F)c2cc1NC1CCN(C(=O)C=C)CC1 [Compound 87, 1-(4-((4-((2-fluoro-4-((4-(6-methylpyridin-3-yl)thiazol-2-yl)oxy)phenyl)amino)-7-(methoxy-d3)quinazolin-6-yl)amino)piperidin-1-yl)prop-2-en-1-one]
300 to 600	30 to 60	< 30	< 30	< 30	C=CC(=O)N1CCC(Nc2cc3c(Nc4ccc(Oc5ccnc(-c6csc(C)n6)c5)cc4F)ncnc3cc2OC)CC1 [Compound 97, 1-(4-((4-((2-fluoro-4-((2-(2-methylthiazol-4-yl)pyridin-4-yl)oxy)phenyl)amino)-7-methoxyquinazolin-6-yl)amino)piperidin-1-yl) prop-2-en-1-one]
300 to 600	100 to 300	100 to 300	100 to 300	100 to 300	C=CC(=O)N1CCC(Nc2cc3c(Nc4ccc(Oc5ccnc(N6CCCCC6)c5)cc4F)ncnc3cc2OC)CC1 [Compound 100, 1-(4-((4-((2-fluoro-4-((2-(piperidin-1-yl)pyridin-4-yl)oxy)phenyl)amino)-7-methoxyquinazolin-6-yl)amino)piperidin-1-yl)prop-2-en-1-one]
≥ 1000	60 to 100	< 30	< 30	< 30	C=CC(=O)N1CCC(Nc2cc3c(Nc4ccc(Oc5ccnc(N6C[C@@H](C)O[C@@H](C)C6)c5)cc4F)ncnc3cc2OC)CC1 [Compound 101, 1-(4-((4-((4-((2-((2R,6S)-2,6-dimethylmorpholino)pyridin-4-yl)oxy)-2-fluorophenyl)amino)-7-methoxyquinazolin-6-yl)amino)piperidin-1-yl)prop-2-en-1-one]
100 to 300	< 30	< 30	< 30	< 30	C=CC(=O)N1CCC(Nc2cc3c(Nc4ccc(Oc5ccnc(N6CCC(C(F)(F)F)C6)c5)cc4F)ncnc3cc2OC)CC1 (stereo not drawn) [Compound 150, 1-(4-((4-((2-fluoro-4-((2-(3-(trifluoromethyl)pyrrolidin-1-yl)pyridin-4-yl)oxy)phenyl)amino)-7-methoxyquinazolin-6-yl)amino)piperidin-1-yl)prop-2-en-1-one]
600 to 1000	100 to 300	< 30	< 30	< 30	C=CC(=O)N1CCC(Nc2cc3c(Nc4ccc(Oc5ccnc(N6CCC(C#N)C6)c5)cc4F)ncnc3cc2OC)CC1 (stereo not drawn) [Compound 151, 1-(4-(4-((6-((1-acryloylpiperidin-4-yl)amino)-7-methoxyquinazolin-4-yl)amino)-3-fluorophenoxy)pyridin-2-yl)pyrrolidine-3-carbonitrile]
≥ 1000	300 to 600	< 30	< 30	30 to 60	C=CC(=O)N1CCC(Oc2cc3c(Nc4ccc(Oc5ccnc(N6C[C@H]7COC[C@H]7C6)c5)cc4F)ncnc3cc2OC)CC1 [Compound 165, 1-(4-((4-((2-fluoro-4-((2-((3aR,6aS)-tetrahydro-1H-furo[3,4-c]pyrrol-5(3H)-yl)pyridin-4-yl)oxy)phenyl)amino)-7-methoxyquinazolin-6-yl)oxy)piperidin-1-yl)prop-2-en-1-one]
600 to 1000	< 30	60 to 100	30 to 60	60 to 100	C=CC(=O)N1CCC(Nc2cc3c(Nc4ccc(Oc5ccnc(C(=O)NC(C)(C)C)c5)cc4F)ncnc3cc2OC)CC1 [Compound 167, 4-(4-((6-((1-acryloylpiperidin-4-yl)amino)-7-methoxyquinazolin-4-yl)amino)-3-fluorophenoxy)-N-(tert-butyl)picolinamide]
100 to 300	< 30	< 30	< 30	< 30	C=CC(=O)N1CCC(Nc2cc3c(Nc4ccc(Oc5ccnc(C(=O)NC)c5)cc4F)ncnc3cc2OC)CC1 [Compound 181, 4-(4-((6-((1-acryloylpiperidin-4-yl)amino)-7-methoxyquinazolin-4-yl)amino)-3-fluorophenoxy)-N-methylpicolinamide]
100 to 300	< 30	< 30	< 30	< 30	C=CC(=O)N1CCC(Nc2cc3c(Nc4ccc(Oc5ccnc(NC6CCOCC6)c5)cc4F)ncnc3cc2OC)CC1 [Compound 185, 1-(4-((4-((2-fluoro-4-((2-((tetrahydro-2H-pyran-4-yl)amino)pyridin-4-yl)oxy)phenyl)amino)-7-methoxyquinazolin-6-yl)amino)piperidin-1-yl)prop-2-en-1-one]
300 to 600	30 to 60	< 30	< 30	< 30	C=CC(=O)N1CCC(Nc2cc3c(Nc4ccc(Oc5ccnc(-c6nc(C)no6)c5)cc4F)ncnc3cc2OC)CC1 [Compound 191, 1-(4-((4-((2-fluoro-4-((2-(3-methyl-1,2,4-oxadiazol-5-yl)pyridin-4-yl)oxy)phenyl)amino)-7-methoxyquinazolin-6-yl)amino)piperidin-1-yl)prop-2-en-1-one]
≥ 1000	100 to 300	< 30	< 30	< 30	C=CC(=O)N1CCC(Nc2cc3c(Nc4ccc(Oc5ccnc(-c6nnc(C)o6)c5)cc4F)ncnc3cc2OC)CC1 [Compound 193, 1-(4-((4-((2-fluoro-4-((2-(5-methyl-1,3,4-oxadiazol-2-yl)pyridin-4-yl)oxy)phenyl)amino)-7-methoxyquinazolin-6-yl)amino)piperidin-1-yl)prop-2-en-1-one]
600 to 1000	300 to 600	60 to 100	30 to 60	< 30	C=CC(=O)N1CCC(Nc2cc3c(Nc4ccc(Oc5ccnc(CN6CCOCC6)c5)cc4F)ncnc3cc2OC)CC1 [Compound 210, 1-(4-((4-((2-fluoro-4-((2-(morpholinomethyl)pyridin-4-yl)oxy)phenyl)amino)-7-methoxyquinazolin-6-yl)amino)piperidin-1-yl)prop-2-en-1-one]
